Measurements reported in patent publication US10265378B2, “Combination therapy for head and neck cancer” (Cornell University, priority 2014, dated 2019).

Tested on: pathways (Reactome, KEGG, MouseCyc) in mouse tongue
Experiment: Pathway enrichment analysis (ConsensusPathDB) of RNA-Seq data
[1] = down-regulated vs. 4-NQO group, KEGG
[2] = down-regulated vs. 4-NQO group, Reactome
[3] = upregulated vs. 4-NQO group, KEGG
[4] = upregulated vs. 4-NQO group, MouseCyc
[5] = upregulated vs. 4-NQO group, Reactome

Procedure: RNA-Seq analysis of mRNA transcriptome. Representative tongue samples were chosen for the RNA-Seq analysis: untreated (n=5), 4-NQO treatment group (n=3), 4N+B (n=4), 4N+C (n=4), and 4N+B+C (n=5). The extraction of total cellular RNA from mouse tissues was carried out using the RNeasy kit (Qiagen). Subsequent RNA preparation steps were carried out at the Genomics Resources Core Facility of WCMC. The measurement of RNA integrity was determined using the Agilent 2100 BioAnalyzer (Agilent Technologies). Samples with RNA integrity number (RIN) values of 10 were used to construct cDNA libraries. mRNA was purified by using pre-prepared Sera-mag Magnetic Oligo(dT) Beads from Illumina Inc. (SanDiego, Calif.), subjected to thermal fragmentation, and reverse transcribed to first strand cDNA. Following the removal of mRNA strands by RNaseH, first strand cDNAs were used as templates to produce double strand cDNAs, and the overhangs resulting from fragmentation were repaired to blunt ends. An ‘A’ base was added to the 3′ end of cDNAs and subsequently the cDNAs were ligated to Illumina paired end (PE) adaptors that have a single ‘T’ base overhang at their 3′ end. The cDNA-adaptor libraries were purified and enriched by 15 cycles of PCR. The enriched libraries were hybridized to a flow cell and amplified, resulting in ultra-high density flow cells with millions of clusters, each containing about 1,000 copies of the templates. The double stranded cDNA-adaptors were denatured and converted into single strand DNA, and then the template cDNAs were amplified one more time isothermally to produce surface-bound colonies. The clonal DNA clusters were linearized, free 3′ OH ends blocked, denatured, hybridized to sequencing primers, and sequenced. The sequencing was conducted by running 4 samples per lane with 51 pair-end cycles on the HISeq2000/1000. The Sequencing-by-Synthesis process used reversible terminators and a DNA polymerase modified to accept reversible terminator nucleotides. After each synthesis cycle the fluorescence of clusters was imaged with high sensitivity. Then the sequencing images were analyzed in three steps, image analysis, base calling, and sequence analysis. The Tophat software was used to align raw sequencing reads against the UCSC mm9 mouse reference genome, and Cufflinks software was employed to measure transcript abundances in the unit of fragments per kilobase of exon model per million mapped reads (FPKM), as well as to perform statistical analysis on the changes in gene expression. The heat maps for genes of interest were generated by R package software.

O=C(O)c1ccc(-c2ccc3cc(O)c(C45CC6CC(CC(C6)C4)C5)cc3c2)cc1 [CD1530]
cytochrome P450 enzymes (pathway analysis) (compared to the 4-NQO group): significantly elevated | candidates contained, pathway Cell cycle-Mus musculus (mouse) [1]: 23 (18.1%) | candidates contained, pathway DNA replication-Mus musculus (mouse) [1]: 9 (25.0%) | candidates contained, pathway ECM-receptor interaction-Mus musculus (mouse) [1]: 13 (15.1%) | candidates contained, pathway Pathways in cancer-Mus musculus (mouse) [1]: 27 (8.4%) | candidates contained, pathway Small cell lung cancer-Mus musculus (mouse) [1]: 13 (14.9%) | candidates contained, pathway p53 signaling pathway-Mus musculus (mouse) [1]: 12 (17.4%) | candidates contained, pathway Activation of ATR in response to replication stress [2]: 11 (28.9%) | candidates contained, pathway Activation of the pre-replicative complex [2]: 11 (37.9%) | candidates contained, pathway Assembly of the pre-replicative complex [2]: 9 (40.9%) | candidates contained, pathway Cell Cycle [2]: 54 (17.8%) | candidates contained, pathway Cell Cycle Checkpoints [2]: 19 (24.7%) | candidates contained, pathway Cell Cycle, Mitotic [2]: 52 (19.4%) | candidates contained, pathway Cyclin A/B1 associated events during G2/M transition [2]: 6 (37.5%) | candidates contained, pathway Cyclin B2 mediated events [2]: 4 (80.0%) | candidates contained, pathway DNA Replication [2]: 41 (26.1%) | candidates contained, pathway DNA Replication Pre-Initiation [2]: 12 (33.3%) | candidates contained, pathway DNA strand elongation [2]: 8 (25.8%) | candidates contained, pathway G1/S Transition [2]: 14 (22.6%) | candidates contained, pathway G2/M Checkpoints [2]: 14 (31.1%) | candidates contained, pathway M Phase [2]: 27 (27.3%) | candidates contained, pathway M/G1 Transition [2]: 12 (33.3%) | candidates contained, pathway Mitotic G1-G1/S phases [2]: 16 (21.9%) | candidates contained, pathway Mitotic M-M/G1 phases [2]: 39 (28.9%) | candidates contained, pathway Mitotic Prometaphase [2]: 26 (27.4%) | candidates contained, pathway Orc1 removal from chromatin [2]: 8 (28.6%) | candidates contained, pathway Regulation of DNA replication [2]: 10 (33.3%) | candidates contained, pathway Removal of licensing factors from origins [2]: 10 (33.3%) | candidates contained, pathway S Phase [2]: 12 (17.4%) | candidates contained, pathway Switching of origins to a post-replicative state [2]: 8 (28.6%) | candidates contained, pathway Synthesis of DNA [2]: 11 (20.4%) | candidates contained, pathway Unwinding of DNA [2]: 6 (54.5%) | candidates contained, pathway Arachidonic acid metabolism-Mus musculus (mouse) [3]: 25 (26.6%) | candidates contained, pathway Ascorbate and aldarate metabolism-Mus musculus (mouse) [3]: 11 (42.3%) | candidates contained, pathway Bile secretion-Mus musculus (mouse) [3]: 23 (32.4%) | candidates contained, pathway Biosynthesis of unsaturated fatty acids-Mus musculus (mouse) [3]: 10 (40.0%) | candidates contained, pathway Complement and coagulation cascades-Mus musculus (mouse) [3]: 38 (50.0%) | candidates contained, pathway Drug metabolism-cytochrome P450-Mus musculus (mouse) [3]: 52 (59.8%) | candidates contained, pathway Drug metabolism-other enzymes-Mus musculus (mouse) [3]: 22 (39.3%) | candidates contained, pathway Fatty acid metabolism-Mus musculus (mouse) [3]: 13 (26.5%) | candidates contained, pathway Glycine, serine and threonine metabolism-Mus musculus (mouse) [3]: 12 (30.8%) | candidates contained, pathway Linoleic acid metabolism-Mus musculus (mouse) [3]: 24 (53.3%) | candidates contained, pathway Maturity onset diabetes of the young-Mus musculus (mouse) [3]: 11 (42.3%) | candidates contained, pathway Metabolic pathways-Mus musculus (mouse) [3]: 160 (13.4%) | candidates contained, pathway Metabolism of xenobiotics by cytochrome P450-Mus musculus (mouse) [3]: 50 (55.6%) | candidates contained, pathway PPAR signaling pathway-Mus musculus (mouse) [3]: 24 (29.6%) | candidates contained, pathway Pentose and glucuronate interconversions-Mus musculus (mouse) [3]: 11 (34.4%) | candidates contained, pathway Peroxisome-Mus musculus (mouse) [3]: 18 (22.8%) | candidates contained, pathway Primary bile acid biosynthesis-Mus musculus (mouse) [3]: 8 (50.0%) | candidates contained, pathway Propanoate metabolism-Mus musculus (mouse) [3]: 11 (34.4%) | candidates contained, pathway Retinol metabolism-Mus musculus (mouse) [3]: 42 (53.2%) | candidates contained, pathway Serotonergic synapse-Mus musculus (mouse) [3]: 24 (17.3%) | candidates contained, pathway Steroid hormone biosynthesis-Mus musculus (mouse) [3]: 19 (34.5%) | candidates contained, pathway Tryptophan metabolism-Mus musculus (mouse) [3]: 16 (36.4%) | candidates contained, pathway Tyrosine metabolism-Mus musculus (mouse) [3]: 11 (28.2%) | candidates contained, pathway beta-Alanine metabolism-Mus musculus (mouse) [3]: 10 (33.3%) | candidates contained, pathway bupropion degradation [4]: 29 (74.4%) | candidates contained, pathway nicotine degradation II [4]: 41 (65.1%) | candidates contained, pathway nicotine degradation III [4]: 35 (63.6%) | candidates contained, pathway Activation of C3 and C5 [5]: 5 (83.3%) | candidates contained, pathway Bile acid and bile salt metabolism [5]: 19 (50.0%) | candidates contained, pathway Biological oxidations [5]: 64 (40.5%) | candidates contained, pathway Chylomicron-mediated lipid transport [5]: 11 (61.1%) | candidates contained, pathway Common Pathway [5]: 9 (69.2%) | candidates contained, pathway Complement cascade [5]: 11 (39.3%) | candidates contained, pathway Cytochrome P450-arranged by substrate type [5]: 42 (51.2%) | candidates contained, pathway Formation of Fibrin Clot (Clotting Cascade) [5]: 18 (52.9%) | candidates contained, pathway Gamma-carboxylation of protein precursors [5]: 6 (66.7%) | candidates contained, pathway Gamma-carboxylation, transport, and amino-terminal cleavage of proteins [5]: 6 (60.0%) | candidates contained, pathway HDL-mediated lipid transport [5]: 9 (52.9%) | candidates contained, pathway Intrinsic Pathway [5]: 10 (50.0%) | candidates contained, pathway Lipid digestion, mobilization, and transport [5]: 18 (36.7%) | candidates contained, pathway Lipoprotein metabolism [5]: 16 (51.6%) | candidates contained, pathway Metabolism [5]: 181 (18.6%) | candidates contained, pathway Metabolism of amino acids and derivatives [5]: 34 (27.4%) | candidates contained, pathway Metabolism of lipids and lipoproteins [5]: 57 (21.8%) | candidates contained, pathway Miscellaneous substrates [5]: 10 (55.6%) | candidates contained, pathway Phase 1-Functionalization of compounds [5]: 51 (51.5%) | candidates contained, pathway Phase II conjugation [5]: 14 (23.3%) | candidates contained, pathway Phenylalanine and tyrosine catabolism [5]: 7 (87.5%) | candidates contained, pathway Platelet degranulation [5]: 19 (29.7%) | candidates contained, pathway Recycling of bile acids and salts [5]: 7 (50.0%) | candidates contained, pathway Removal of aminoterminal propeptides from gamma-carboxylated proteins [5]: 6 (66.7%) | candidates contained, pathway Response to elevated platelet cytosolic Ca2+ [5]: 19 (27.1%) | candidates contained, pathway Synthesis of bile acids and bile salts [5]: 15 (55.6%) | candidates contained, pathway Synthesis of bile acids and bile salts via 7alpha-hydroxycholesterol [5]: 15 (65.2%) | candidates contained, pathway Synthesis of bile acids and bile salts via 24-hydroxycholesterol [5]: 11 (61.1%) | candidates contained, pathway Synthesis of bile acids and bile salts via 27-hydroxycholesterol [5]: 8 (57.1%) | candidates contained, pathway Terminal pathway of complement [5]: 5 (83.3%) | candidates contained, pathway Transport of gamma-carboxylated protein precursors from the ER to the Golgi apparatus [5]: 6 (75.0%) | candidates contained, pathway Xenobiotics [5]: 31 (81.6%)
